Experimental data: patent publication US20150004617A1, “DNA Polymerase Activity Assays and Methods Enabling Determination of Viable Microbes” (Zeus Scientific, Inc., priority 2012, published 2015)

Legend:
DNA polymerase I = biological target: T1, DNA polymerase I (Escherichia coli, UniProt P00582); test: DPE-PCR assay with purified DNA polymerase, ddCTP termination; assay type: biochemical; settings: dNTP mix with 50 μM ddCTP instead of 50 μM dCTP; 2×10^−9 U DNA polymerase I; 37° C., 20 minutes
T1 construct: purchased New England Biolabs M0209
T1 sequence (P00582 whole entry): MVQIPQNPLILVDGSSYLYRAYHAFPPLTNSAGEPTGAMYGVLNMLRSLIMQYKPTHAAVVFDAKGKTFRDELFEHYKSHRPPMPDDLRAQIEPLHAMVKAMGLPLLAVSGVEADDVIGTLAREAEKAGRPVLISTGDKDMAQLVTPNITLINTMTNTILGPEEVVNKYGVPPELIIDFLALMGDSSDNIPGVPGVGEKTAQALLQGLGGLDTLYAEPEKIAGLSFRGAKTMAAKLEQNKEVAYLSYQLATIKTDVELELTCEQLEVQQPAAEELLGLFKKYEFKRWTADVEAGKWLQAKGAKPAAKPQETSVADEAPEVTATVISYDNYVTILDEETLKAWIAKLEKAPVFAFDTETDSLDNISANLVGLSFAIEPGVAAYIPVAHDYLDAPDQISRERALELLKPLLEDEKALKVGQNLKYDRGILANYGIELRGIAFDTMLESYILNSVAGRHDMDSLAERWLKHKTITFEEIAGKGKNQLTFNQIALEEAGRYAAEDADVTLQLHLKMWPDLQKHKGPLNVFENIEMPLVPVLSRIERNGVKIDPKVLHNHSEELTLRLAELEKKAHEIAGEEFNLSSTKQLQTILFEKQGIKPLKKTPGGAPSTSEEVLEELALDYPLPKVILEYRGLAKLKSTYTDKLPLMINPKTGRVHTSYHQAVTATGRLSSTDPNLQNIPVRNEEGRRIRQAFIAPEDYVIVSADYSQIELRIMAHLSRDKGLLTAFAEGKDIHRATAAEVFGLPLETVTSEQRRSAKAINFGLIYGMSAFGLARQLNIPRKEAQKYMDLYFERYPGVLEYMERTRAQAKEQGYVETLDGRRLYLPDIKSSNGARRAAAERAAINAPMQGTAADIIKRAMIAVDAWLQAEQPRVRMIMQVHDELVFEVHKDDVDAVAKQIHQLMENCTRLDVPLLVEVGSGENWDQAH
Method: DNA Pol I (NEB cat #M0209L), Klenow (NEB cat #M0210S) and Klenow exo(−) (NEB cat #M0212S) were diluted to the indicated U/μL stock in Tris EDTA (T.E.) pH 8.0. To begin, 2 μL of DNA polymerase stock at each concentration were placed into a 50 μL polymerase assay mixture containing the following components: 50 μM dNTP, 20 mM Tris pH 8.0, 10 mM ammonium sulfate, 10 mM potassium chloride, 2 mM magnesium sulfate, 1% BSA, 0.1% Triton, 0.1% Tween, and 0.001 μM pre-annealed DNA substrate. Reactions were vortexed briefly and placed at 37° C. for 20 minutes. After 20 minutes, 3 μL of each reaction were immediately placed into a quantitative PCR (qPCR) reaction. Detection by qPCR
The qPCR reaction master mix was prepared using the following components: LightCycler 480 Master Mix (Roche cat #04707494001), 333 nM of each primer, 166 nM Target probe (FAM), 166 nM internal control probe (TxRed), and 1.2 U of UDG (Bioline cat #BIO-20744). As a tool to monitor PCR inhibition, each qPCR reaction also included 40 copies of competitive internal control DNA. […]

[1] = tested on: E. coli-derived DNA polymerase activity; test: Bead lysis-coupled DPE-PCR, ddCTP termination of microbial DNA polymerase (E. coli); assay type: biochemical, Escherichia coli; settings: reaction mix with 50 μM ddCTP instead of dCTP; crude bead mill lysate
Method: The qPCR reaction master mix was prepared using the following components: LightCycler 480 Master Mix (Roche cat #04707494001), 333 nM of each primer, 166 nM Target probe (FAM), 166 nM internal control probe (TxRed), and 1.2 U of UDG (Bioline cat #BIO-20744). As a tool to monitor PCR inhibition, each qPCR reaction also included 40 copies of competitive internal control DNA. For each qPCR reaction, 3 μL of DNA polymerase reaction were added to 27 μL of master mix and a two-step qPCR was run on a SmartCycler (Cepheid, Sunnyvale Calif.) as follows: Initial incubation of 40° C. for 10 minutes and 50° C. for 10 minutes and at 95° C. for 5 minutes (to activate Taq), followed by 45 cycles of 5 s denaturation at 95° C. and 20 s annealing/extension at 65° C. Cycle threshold (Ct) values were generated automatically by the SmartCycler software using 2nd derivative analysis of the emerging qPCR curves.
S. aureus and E. coli cultures were grown to an OD600 of 1.0±0.2 (approximately 1×10^9 cfu/mL.) For each organism, 1 mL of culture was pelleted and washed three times in T.E. Bacterial suspensions were serially diluted in T.E., and 5 μL of each stock were added to bead lysis-reactions containing 50 μL of lysis-reaction buffer. […]

Nc1ccn([C@H]2CC[C@@H](COP(=O)(O)OP(=O)(O)OP(=O)(O)O)O2)c(=O)n1 [ddCTP, dideoxyCTP]
DPE-PCR assay signal (DNA polymerase extension activity) (DNA polymerase I): eliminates signal generated by DNA polymerase I
DPE-PCR signal derived from E. coli cfu spikes [1]: blocked the generation of signal derived from E. coli cfu spikes
